Reference: patent US8889375B2, “Hypoglycemic effect enhancer” (Biofermin Pharmaceutical Co., Ltd., priority 2009, dated 2014)

Columns and labels:
KK-A^y mice [1] = test: Oral glucose tolerance test (OGTT) after 6-week feeding of the test diet (Example 2); format: in vivo, mouse
Excerpt: (§1) As the voglibose, BASEN (registered trade name) tablets 0.2 (made by Takeda Pharmaceutical Company Ltd.) were crushed and used. Female KK-A^y mice (strain name KK-A^y/TaJcl) at 8 weeks old were purchased (from CLEA Japan, Inc.) and preliminarily reared in separate cages for 2 weeks. A KK-A^y mouse is a diabetic model mouse. In the preliminary rearing, free access to a commercial powder diet (trade name: CE-2, made by CLEA Japan, Inc.) and tap water was provided. On the first day of the experiment, the oral glucose tolerance test (OGTT) was conducted. That is, to the mice kept fasted from the previous day, a glucose solution ((2 g in 5 mL)/kg) was orally administered. […] Accu-Check Aviva, made by Roche Diagnostics). The area under the blood concentration-time curve (AUC) was calculated, and based on the AUC, the mice were divided into the following 4 groups […] mice/group). The grouped mice were given free access to the test diet. Group A: a group fed with CE-2 containing 10% dextrin. […] Group C: a group fed with CE-2 containing 10% dextrin and 0.0003% voglibose. […] Each group was fed with the test diet for 2 weeks as above, fasted overnight, and then measured for fasting glucose level with use of Accu-Check Aviva. […] The significant difference of each group from Group A was evaluated using Durmett's test, and the significant difference between 2 groups was evaluated using t-test.

KK-A^y mice [2] = test: Fasting blood glucose level after 2-week feeding of the test diet (Example 2); format: in vivo, mouse; conditions: 2-week feeding of test diet (10% BBG9-1 dried cells and/or 0.0003% voglibose in CE-2), fasted overnight, FIG. 1
Excerpt: as §1

GK rats = conditions: 9-week dietary administration, 0.005%: 4.1 mg/kg·day; cited from earlier work

Compound: OCC(CO)N[C@H]1C[C@](O)(CO)[C@@H](O)[C@H](O)[C@H]1O [voglibose, 1L(1S)-(1(OH),2,4,5/1,3)-5-[[2-hydroxy-1-(hydroxymethyl)-ethyl]amino]-1-C-(hydroxymethyl)-1,2,3,4-cyclohexane tetrol]
- glucose tolerance (KK-A^y mice [1]; 6-week dietary administration, voglibose 0.0003%: 0.6 mg/kg·day): did not improve the glucose tolerance
- blood glucose level in the OGTT after glucose loading (KK-A^y mice [1]; 6-week feeding (10% BBG9-1 dried cells and/or 0.0003% voglibose in CE-2), glucose 2 g/kg oral, FIG. 2): neither BBG9-1 alone nor voglibose alone inhibited the increase in the blood glucose level
- fasting blood glucose level (KK-A^y mice [2]): neither BBG9-1 alone nor voglibose alone decreased the fasting blood glucose level
- glucose tolerance (GK rats): improved the glucose tolerance
